# Read-outs that look alike come from different tables or passages of the source.
# Legend:
# [1] = test system: rat liver microsomes (RLM); test: Rat liver microsomal incubation, metabolite formation quantified by UPLC; details: RLM
# Protocol: (§1) The incubation mixtures were prepared and incubated in glass vials to avoid plastic binding of the substrates. The glass vials were capped to prevent substrate loss due to volatility. After preincubation of the incubation mixture at 37 °C for 1 min, the enzymatic reaction was initiated by adding microsomes to the incubation mixture which was subsequently incubated at 37 °C for 20 min. The reaction was terminated by adding 100 µl ice-cold acetonitrile followed by vortexing. After 5 min centrifugation at 5000 rpm (4000 × g), 4 °C, the supernatant was collected for ultraperformance liquid chromatography (UPLC) analysis. […] Therefore, a diisopropylether (DIPE) extraction of the metabolites was performed after the reaction was stopped by the addition of 20 µl 10% HClO4. To this end, the incubation mixture (total volume of 220 µl) was extracted three times with 1 ml DIPE. Each time, the upper organic layer was collected and the DIPE was subsequently evaporated from the combined organic fractions with a gentle stream of nitrogen. The residues were dissolved in 100 µl methanol and analyzed by UPLC.
# (§2) The metabolites formed were analyzed and quantified using an Acquity UPLC system equipped with a photodiode array (PDA) detector (Waters, Milford, MA). The metabolites and their parent compound were separated on a reverse phase Acquity UPLC® BEH C18 column ([…], 1.7 µm, Waters, Milford, MA) and detected at wavelengths ranging from 190 to 400 nm. Eluent A was nano-pure water containing 0.1% trifluoroacetic acid (v/v), and eluent B was acetonitrile containing 0.1% trifluoroacetic acid (v/v). The gradient elution started from 90% A and 10% B applied from 0.0 min to 0.5 min, which was changed to 0% A and 100% B from 0.5 to 15.5 min and then kept at 0% A and 100% B from 15.5 min to 18.5 min, changed back to 90% A and 10% B from 18.5 to 18.6 min and then maintained at the starting conditions from 18.6 min until 22 min. The total run time was 22 min using a flow rate of 0.6 ml/min. The temperature of the column was set at 40 °C and that of the autosampler at 10 °C during the UPLC analysis. The injection volume was 3.5 µl. Metabolites were quantified using their peak area at the wavelength specified in Table 1, using calibration curves of available reference compounds. Metabolites were identified by comparing their retention time (RT) and UV spectrum to those of reference chemicals on UPLC. When reference chemicals were not available, metabolite identification by gas chromatography-triple quadrupole mass spectrometry (GC–MS/MS) was performed. The minor metabolites were identified by elution time and mass spectra both on UPLC and GC–MS/MS, and by comparison with available elution and spectral information from the literature.
# (§3) The metabolite concentrations in the microsomal incubation mixtures as quantified by UPLC were used to calculate the rate of the enzymatic conversions in pmol/min/mg microsomal protein. The kinetic parameters KM and Vmax were obtained using a nonlinear regression curve fit applying the Michaelis Menten equation in GraphPad Prism 5 (San Diego, USA). To compare the catalytic efficiency of formation of the different metabolites the intrinsic clearance (Clint) was calculated as Vmax divided by KM.
# [2] = test system: Salmonella typhimurium TA100; test: Reverse mutation assay (Ames test), TA100; details: for Increase in the number of revertants compared to the concurrent solvent control: TA100, presence of 5% S9-mix, 10–100 µg; for Mutagenicity (conclusion): TA100, positive if more than twofold over control; for His + revertant colonies TA100 without S9-mix: mean ± SD of 3 plates
# Protocol: (§4) Six concentrations of each compound were tested in triplicate in the absence and presence of 5% (v/v) S9-mix prepared from the livers of Aroclor 1254 treated Sprague–Dawley rats. The S9-mix contained 4 mM NADP, 5.8 mM glucose-6-phosphate, 0.1 M sodium phosphate pH 7.4, 8 mM MgCl2, 33 mM KCl and 5% S9 homogenate. Fresh bacterial cultures were prepared overnight to reach 10^9 cells/ml. The following solutions were pre-incubated in a rotating incubator at 70 rpm and 37 °C, and contained either 0.5 ml S9-mix (in case of S9 presence) or 0.5 ml 0.1 M potassium phosphate pH 7.4 (in case of S9 absence), 0.1 ml of a fresh bacterial culture (10^9 cells/ml) of TA98 or TA100, and 10–100 µg test compound. Top agar was melted and heated to 45 °C. After preincubation, the substrate solutions were added to 3 ml of the molten top agar and mixed by vortexing and the top agar mixture was poured onto a minimal glucose agar plate. After solidification of the top agar, the plates were incubated at 37 °C for 48 h. The number of revertant colonies per plate was automatically counted with the Instem Sorcerer Colony Counter (Staffordshire, UK). In the absence of S9-mix, 2-nitrofluorene (NF) and methylmethanesulfonate (MMS) were tested as positive controls for incubations with TA98 and TA100, respectively. In the presence of S9-mix, 2-aminoanthracene (2AA) was tested as a positive control in both TA98 and TA100. DMSO was tested as a solvent control in both tester strains.
# S. typhimurium TA98 = details: cited from earlier work
# mouse skin = test system: mouse skin; set-up: method as in Buening et al. [1979]; LaVoie et al. [1981]; details: mouse skin painting; ref Buening et al. [1979]; LaVoie et al. [1981]; cited from earlier work
# [3] = test system: human liver microsomes (HLM); test: Human liver microsomal incubation, metabolite formation quantified by UPLC; details: HLM
# Protocol: as §1, §2, §3
# S. typhimurium TA100 = details: cited from earlier work
# [4] = test system: Salmonella typhimurium TA98; test: Reverse mutation assay (Ames test), TA98; details: for Increase in the number of revertants compared to the concurrent solvent control: TA98, presence of 5% S9-mix, 10–100 µg; for Mutagenicity (conclusion): TA98, positive if more than threefold over control
# Protocol: as §4, with “and 10–100 µg test compound.” left out
# [5] = ref Katarzyna Rudnicka et al. [2013]
structure (smiles),measurement,setting,value
Cc1cccc2c1ccc1ccccc12 [1-Methylphenanthrene],"Vmax, formation of 1-(Hydroxymethyl) phennathrene RT = 5.55 min",[1]; substrate 1-Methylphenanthrene,1926 ± 40.3 pmol/min/mg microsomal protein
same,"Vmax, formation of 1-Methylphenanthrol RT = 6.80 min",[1]; substrate 1-Methylphenanthrene,33.1 ± 2.1 pmol/min/mg microsomal protein
same,"Vmax, formation of 1-Methylphenanthrol RT = 6.92 min",[1]; substrate 1-Methylphenanthrene,24.0 ± 1.6 pmol/min/mg microsomal protein
same,"Vmax, formation of 1-Methylphenanthrol RT = 7.00 min",[1]; substrate 1-Methylphenanthrene,17.3 ± 1.2 pmol/min/mg microsomal protein
same,"Vmax, formation of 1-Methylphenanthrol RT = 7.29 min",[1]; substrate 1-Methylphenanthrene,9.0 ± 0.8 pmol/min/mg microsomal protein
same,"Vmax, formation of Dihydro-1-methylphenanthrene-diol RT = 3.43 min",[1]; substrate 1-Methylphenanthrene,4.2 ± 0.4 pmol/min/mg microsomal protein
same,"Vmax, formation of Dihydro-1-methylphenanthrene-diol RT = 3.96 min",[1]; substrate 1-Methylphenanthrene,5.2 ± 0.3 pmol/min/mg microsomal protein
same,"Vmax, formation of Dihydro-1-methylphenanthrene-diol RT = 4.35 min",[1]; substrate 1-Methylphenanthrene,16.1 ± 1.3 pmol/min/mg microsomal protein
same,"Vmax, formation of Dihydro-1-methylphenanthrene-diol RT = 4.76 min",[1]; substrate 1-Methylphenanthrene,14.0 ± 0.6 pmol/min/mg microsomal protein
same,Increase in the number of revertants compared to the concurrent solvent control,[2],≤ 6.8 fold
same,Mutagenicity (conclusion),[2],showed mutagenicity
same,Increase in revertants,S. typhimurium TA98; [5],8.4 fold
same,Increase in revertants,S. typhimurium TA98; ref LaVoie et al. [1983],3.2 fold
same,Tumor-initiating activity,mouse skin,neither phenanthrene nor its monomethylated analogs
same,"Vmax, formation of 1-(Hydroxymethyl) phennathrene RT = 5.55 min",[3]; substrate 1-Methylphenanthrene,475.3 ± 13.2 pmol/min/mg microsomal protein
same,"Vmax, formation of 1-Methylphenanthrol RT = 6.3 min",[3]; substrate 1-Methylphenanthrene,14.7 ± 0.8 pmol/min/mg microsomal protein
same,"Vmax, formation of 1-Methylphenanthrol RT = 6.80 min",[3]; substrate 1-Methylphenanthrene,77.3 ± 3.9 pmol/min/mg microsomal protein
same,"Vmax, formation of Dihydro-1-methylphenanthrene-diol RT = 2.32 min",[3]; substrate 1-Methylphenanthrene,27.5 ± 4.6 pmol/min/mg microsomal protein
same,"Vmax, formation of Dihydro-1-methylphenanthrene-diol RT = 4.35 min",[3]; substrate 1-Methylphenanthrene,20.6 ± 0.5 pmol/min/mg microsomal protein
same,Increase in revertants,S. typhimurium TA100; [5],4.1 fold
same,Increase in revertants,S. typhimurium TA100; ref LaVoie et al. [1983],6.0 fold
same,Increase in the number of revertants compared to the concurrent solvent control,[4],up to 13 fold
same,Mutagenicity (conclusion),[4],showed mutagenicity
Cc1cc2ccccc2c2ccccc12 [9-Methylphenanthrene],"Vmax, formation of 9-(Hydroxymethyl)-phenanthrene RT = 5.6 min",[1]; substrate 9-Methylphenanthrene,1543 ± 226.6 pmol/min/mg microsomal protein
same,"Vmax, formation of 9-Methylphenanthrol RT = 6.73 min",[1]; substrate 9-Methylphenanthrene,27.2 ± 5.1 pmol/min/mg microsomal protein
same,"Vmax, formation of 9-Methylphenanthrol RT = 6.87 min",[1]; substrate 9-Methylphenanthrene,124.2 ± 29.2 pmol/min/mg microsomal protein
same,"Vmax, formation of 9-Methylphenanthrol RT = 7.2 min",[1]; substrate 9-Methylphenanthrene,41.4 ± 23.4 pmol/min/mg microsomal protein
same,"Vmax, formation of 9-Methylphenanthrol RT = 7.25 min",[1]; substrate 9-Methylphenanthrene,10.2 ± 1.9 pmol/min/mg microsomal protein
same,His + revertant colonies TA100 without S9-mix,[2]; 2 µg/plate,121±7
same,His + revertant colonies TA100 without S9-mix,[2]; 4 µg/plate,109±3
same,His + revertant colonies TA100 without S9-mix,[2]; 10 µg/plate,105±11
same,His + revertant colonies TA100 without S9-mix,[2]; 20 µg/plate,97±20
same,His + revertant colonies TA100 without S9-mix,[2]; 40 µg/plate,59±40
same,Cytotoxicity at the test doses,"[2]; TA100, absence of S9 mix",showed cytotoxicity
same,Increase in the number of revertants compared to the concurrent solvent control,[2],1.9 fold
same,Increase in the number of revertants relative to the historical control data,"[2]; TA100, presence of S9-mix",2.0 fold
same,Mutagenicity (conclusion),[2],indicative of mutagenicity
same,Increase in revertants,S. typhimurium TA98; ref LaVoie et al. [1983],1.3 fold
same,Tumor-initiating activity,mouse skin,neither phenanthrene nor its monomethylated analogs
same,"Vmax, formation of 1,2-Dihydro-9-methylphenanthrene-diol RT = 4.27 min",[3]; substrate 9-Methylphenanthrene,15.6 ± 2.4 pmol/min/mg microsomal protein
same,"Vmax, formation of 3,4-Dihydro-9-methylphenanthrene-diol RT = 2.98 min",[3]; substrate 9-Methylphenanthrene,26.1 ± 3.0 pmol/min/mg microsomal protein
same,"Vmax, formation of 9-(Hydroxymethyl)-phenanthrene RT = 5.6 min",[3]; substrate 9-Methylphenanthrene,415.9 ± 43.9 pmol/min/mg microsomal protein
same,"Vmax, formation of 9-Methylphenanthrol RT = 6.28 min",[3]; substrate 9-Methylphenanthrene,27.8 ± 6.7 pmol/min/mg microsomal protein
same,"Vmax, formation of 9-Methylphenanthrol RT = 6.73 min",[3]; substrate 9-Methylphenanthrene,44.9 ± 19.4 pmol/min/mg microsomal protein
same,Increase in revertants,S. typhimurium TA100; ref LaVoie et al. [1983],3.0 fold
same,Increase in the number of revertants compared to the concurrent solvent control,[4],2.5 fold
same,Increase in the number of revertants relative to the historical control data,"[4]; TA98, presence of S9-mix",3.2 fold
same,Mutagenicity (conclusion),[4],indicative of mutagenicity

# Source: paper PMC8921064 (Archives of Toxicology, 2022)
